In assay [1] the target is T1, Peroxisome proliferator-activated receptor alpha (Homo sapiens, UniProt Q07869).
T1 sequence (Q07869 whole entry): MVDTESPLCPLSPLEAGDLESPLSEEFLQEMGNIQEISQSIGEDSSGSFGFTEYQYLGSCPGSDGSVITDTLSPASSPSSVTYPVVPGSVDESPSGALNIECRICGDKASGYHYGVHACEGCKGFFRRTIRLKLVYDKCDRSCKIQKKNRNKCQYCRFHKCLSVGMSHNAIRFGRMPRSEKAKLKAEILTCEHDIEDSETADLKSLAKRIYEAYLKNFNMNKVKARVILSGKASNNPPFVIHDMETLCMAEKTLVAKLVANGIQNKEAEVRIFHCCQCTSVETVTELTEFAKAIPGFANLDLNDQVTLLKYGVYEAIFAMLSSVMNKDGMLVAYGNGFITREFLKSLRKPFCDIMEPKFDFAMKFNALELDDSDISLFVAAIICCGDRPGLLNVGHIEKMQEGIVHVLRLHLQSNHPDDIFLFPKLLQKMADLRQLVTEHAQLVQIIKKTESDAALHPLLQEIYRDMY
The assay can be described thus: PPAR alpha Fluorescence Polarization Assay. The following applies: pH 8; 22 °C. A general note: Fluorescence polarisation rises when a labelled molecule tumbles more slowly, as on binding a larger partner.

Assay [2] has as its target T2, Peroxisome proliferator-activated receptor alpha (Mus musculus, UniProt P23204).
T2 sequence (P23204 whole entry): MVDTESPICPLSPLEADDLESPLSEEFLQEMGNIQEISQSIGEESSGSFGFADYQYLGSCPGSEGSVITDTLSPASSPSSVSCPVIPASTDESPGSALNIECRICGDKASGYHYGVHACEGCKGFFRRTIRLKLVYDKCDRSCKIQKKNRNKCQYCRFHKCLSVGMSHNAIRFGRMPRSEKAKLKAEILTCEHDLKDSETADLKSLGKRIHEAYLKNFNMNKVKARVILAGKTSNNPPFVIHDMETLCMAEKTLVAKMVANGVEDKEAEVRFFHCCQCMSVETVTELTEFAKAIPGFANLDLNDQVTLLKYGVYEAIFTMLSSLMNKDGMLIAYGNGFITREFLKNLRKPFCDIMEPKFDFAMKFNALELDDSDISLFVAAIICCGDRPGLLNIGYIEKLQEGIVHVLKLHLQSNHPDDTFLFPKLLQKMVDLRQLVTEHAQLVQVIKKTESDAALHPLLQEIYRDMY

Assay [3] has as its target T3, Peroxisome proliferator-activated receptor alpha (Mesocricetus auratus, UniProt Q7TNH1).
T3 sequence (Q7TNH1 whole entry): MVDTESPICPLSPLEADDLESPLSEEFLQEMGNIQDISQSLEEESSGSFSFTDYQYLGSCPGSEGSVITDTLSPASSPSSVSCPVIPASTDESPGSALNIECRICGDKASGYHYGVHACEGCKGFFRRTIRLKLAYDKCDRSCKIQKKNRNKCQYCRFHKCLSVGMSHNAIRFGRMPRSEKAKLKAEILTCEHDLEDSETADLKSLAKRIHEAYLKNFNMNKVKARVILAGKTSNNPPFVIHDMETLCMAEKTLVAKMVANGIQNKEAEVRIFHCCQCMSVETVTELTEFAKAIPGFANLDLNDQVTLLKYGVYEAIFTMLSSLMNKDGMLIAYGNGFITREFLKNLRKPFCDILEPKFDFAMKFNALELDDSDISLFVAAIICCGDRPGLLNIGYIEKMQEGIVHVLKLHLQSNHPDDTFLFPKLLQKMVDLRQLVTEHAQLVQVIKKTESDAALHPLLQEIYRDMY

Assay [4] addresses T4, Peroxisome proliferator-activated receptor alpha (Rattus norvegicus, UniProt P37230).
T4 sequence (P37230 whole entry): T2 sequence (P23204 whole entry) with I41L, G50S, V85A, I86V, A88T, S96N, V135A, G207A, D265N

The target of assay [5] is T5, Peroxisome proliferator-activated receptor delta (Homo sapiens, UniProt Q03181).
T5 sequence (Q03181 whole entry): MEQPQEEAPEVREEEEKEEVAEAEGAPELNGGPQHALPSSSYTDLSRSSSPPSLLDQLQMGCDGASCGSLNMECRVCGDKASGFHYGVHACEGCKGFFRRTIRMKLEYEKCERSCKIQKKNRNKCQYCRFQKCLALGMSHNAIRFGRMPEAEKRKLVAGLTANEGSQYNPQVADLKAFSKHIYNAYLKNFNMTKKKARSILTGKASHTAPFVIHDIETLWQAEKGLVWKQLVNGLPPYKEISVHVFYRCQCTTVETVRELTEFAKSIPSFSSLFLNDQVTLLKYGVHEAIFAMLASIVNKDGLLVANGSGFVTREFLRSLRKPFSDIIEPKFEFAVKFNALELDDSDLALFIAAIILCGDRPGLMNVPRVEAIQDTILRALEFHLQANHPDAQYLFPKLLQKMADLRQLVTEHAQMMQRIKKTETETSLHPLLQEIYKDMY

Assay [6] addresses T6, Peroxisome proliferator-activated receptor gamma (Homo sapiens, UniProt P37231).
T6 sequence (P37231 whole entry): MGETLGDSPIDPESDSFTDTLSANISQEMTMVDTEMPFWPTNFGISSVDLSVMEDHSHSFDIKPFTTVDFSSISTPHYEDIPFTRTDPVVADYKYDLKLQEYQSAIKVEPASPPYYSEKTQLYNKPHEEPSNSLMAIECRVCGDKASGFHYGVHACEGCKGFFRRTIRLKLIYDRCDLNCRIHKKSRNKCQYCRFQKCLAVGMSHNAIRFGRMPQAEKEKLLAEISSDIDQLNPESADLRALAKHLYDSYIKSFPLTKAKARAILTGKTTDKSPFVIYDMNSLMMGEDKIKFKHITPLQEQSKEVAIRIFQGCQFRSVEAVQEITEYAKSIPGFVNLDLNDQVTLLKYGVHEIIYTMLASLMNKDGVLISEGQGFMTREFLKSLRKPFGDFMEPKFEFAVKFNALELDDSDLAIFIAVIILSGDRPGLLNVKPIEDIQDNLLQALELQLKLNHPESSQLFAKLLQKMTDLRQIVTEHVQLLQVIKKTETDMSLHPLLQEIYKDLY
The assay can be described thus: PPAR gamma Fluorescence Polarization Assay. The following applies: pH 8; 22 °C.

Our source for the EC50 and IC50 values is BindingDB's records for doi:10.1124/jpet.108.143271 (Bristol-Myers Squibb, 2008).

Each structure is given as a SMILES string. Substitutions are numbered along the chain they refer to.

The term EC50 denotes the concentration needed to bring the measured effect to its halfway point. By IC50 is commonly meant the midpoint of a concentration-inhibition curve. The low end stands for higher potency, the high end for lower potency. Take `CC(Oc1ccc(Oc2ccc(Cl)cc2)cc1)C(=O)O` (configuration not stated) [Clofop]: the EC50 worked out at 11.6 µM in assay [1], 18.5 µM in assay [2], 28.7 µM in assay [3] and 17.7 µM in assay [4]. Further, the IC50 in assay [1] is > 98.4 µM.
For the molecule `COC(=O)N(CC(=O)O)Cc1cc(OCc2nc(-c3ccc(Cl)cc3)oc2C)ccc1F` [2-{[(5-{[2-(4-chlorophenyl)-5-methyl-1,3-oxazol-4-yl]methoxy}-2-fluorophenyl)methyl](methoxycarbonyl)amino}acetic acid], the values for the IC50 in assay [1] and in assay [6] were 0.097 µM and > 15 µM, respectively. In addition, the EC50 in assay [2] is 0.145 µM; in assay [3], 0.178 µM; in assay [5], > 25 µM; in assay [4] it was 0.123 µM.
For the molecule `COC(=O)N(CC(=O)O)Cc1cccc(OCc2nc(-c3ccc(Cl)cc3)oc2C)c1` [2-{[(3-{[2-(4-chlorophenyl)-5-methyl-1,3-oxazol-4-yl]methoxy}phenyl)methyl](methoxycarbonyl)amino}acetic acid], a half-maximal response in assay [4] (EC50) required 0.317 µM.
